pIC50: −log10 of the molar value. Read-outs that look alike come from different tables or passages of the source.
What was measured:
[1] = target: T1, BRD9 bromodomain (Flag-BRD9 P133-K239; Swiss Prot Q9H8M2) (Homo sapiens, UniProt Q9H8M2); test: BRD9 bromodomain TR-FRET competition binding assay; details: 3 nM Flag-BRD9, 3.75 nM biotinylated ligand, 90 minutes at room temperature
T1 construct: His-Flag-BRD9 (P133-K239); Swiss Prot Q9H8M2; His6 with TEV site (mgsshhhhhhenlyfq/) (N, cleaved yes); made in house
T1 sequence (Q9H8M2 133-239): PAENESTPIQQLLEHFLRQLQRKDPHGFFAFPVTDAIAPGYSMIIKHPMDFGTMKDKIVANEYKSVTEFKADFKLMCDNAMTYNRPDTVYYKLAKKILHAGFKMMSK
Description: Cleaved His tag was removed by purification. […] DMSO or 3-fold serially diluted compounds were then added to the Proxiplate followed by addition of Flag-BRD9. After a 10-minute incubation at room temperature, Eu-W1024 anti-FLAG (PerkinElmer, AD0273) was added.

[2] = target: T2, Nanoluciferase-BRD9 fusion protein (3×FLAG-NLuc-BRD9) in SYO-1 cells (Homo sapiens, UniProt Q9H8M2); test: SYO1 BRD9 NanoLuc degradation assay; type: cell-based; details: 1 μM top dose, read-out: SYO1 BRD9-NanoLuc degradation IC50
T2 construct: expressed in transfected cells; host or cells: SYO-1
T2 sequence (Q9H8M2 1-597): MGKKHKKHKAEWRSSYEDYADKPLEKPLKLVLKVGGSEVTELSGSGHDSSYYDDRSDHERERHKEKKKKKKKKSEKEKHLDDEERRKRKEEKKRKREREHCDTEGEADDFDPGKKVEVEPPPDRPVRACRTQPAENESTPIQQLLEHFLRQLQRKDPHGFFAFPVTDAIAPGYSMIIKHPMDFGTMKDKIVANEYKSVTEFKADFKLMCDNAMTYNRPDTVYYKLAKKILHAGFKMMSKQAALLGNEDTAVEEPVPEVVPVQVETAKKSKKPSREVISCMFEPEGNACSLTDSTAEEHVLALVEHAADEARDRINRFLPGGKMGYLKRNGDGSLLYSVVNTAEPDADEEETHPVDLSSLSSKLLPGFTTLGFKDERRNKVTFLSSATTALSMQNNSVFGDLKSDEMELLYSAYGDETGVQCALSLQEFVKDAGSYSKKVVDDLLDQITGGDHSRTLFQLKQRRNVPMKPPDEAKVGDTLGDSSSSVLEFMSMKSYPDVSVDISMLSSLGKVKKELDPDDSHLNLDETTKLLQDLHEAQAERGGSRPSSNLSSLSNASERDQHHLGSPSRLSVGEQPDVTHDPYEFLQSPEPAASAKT
How it was run: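 Stable SYO-1 line expressing 3×FLAG-NLuc-BRD9 was seeded at 8000 cells/well, then treated next day for 6 h with 10-point 3-fold dilutions (top 1 μM final). Nano-Glo luminescence was read. % inhibition was normalised to DMSO (high control) and 1 μM reference BRD9 degrader (low control).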

[3] = Table 6B, SYO-1 cells expressing 3×FLAG-NLuc-BRD9, 6 hours incubation
[4] = Table 6C, SYO-1 cells expressing 3×FLAG-NLuc-BRD9, 6 hours incubation

Row | SMILES | pIC50 [1] | DC50 [2, 4] [nM] | also measured
1 | COc1ccc(-c2cn(C)c(=O)c3ccsc23)cc1OC [Compound B10, 7-(3,4-dimethoxyphenyl)-5-methyl-4H,5H-thieno[3,2-c]pyridin-4-one] | < 8.00 | – | –
2 | COc1cc(-c2cn(C)c(=O)c3cc(C(=O)NC4CCN(C)CC4)sc23)cc(OC)c1CN(C)C [Compound B6, 7-[4-[(dimethylamino)methyl]-3,5-dimethoxyphenyl]-5-methyl-N-(1-methylpiperidin-4-yl)-4-oxo-4H,5H-thieno[3,2-c]pyridine-2-carboxamide] | > 8.00 | – | –
3 | COc1cc(-c2cn(C)c(=O)c3cc(C(=O)N4CCN(C)CC4)sc23)cc(OC)c1CN(C)C [Compound B7, 7-[4-[(dimethylamino)methyl]-3,5-dimethoxyphenyl]-5-methyl-2-(4-methylpiperazine-1-carbonyl)-4H,5H-thieno[3,2-c]pyridin-4-one] | < 7.00 | – | –
4 | COc1ccc(-c2cn(C)c(=O)c3cc(-c4ncc[nH]4)sc23)cc1OC [Compound B9, 7-(3,4-dimethoxyphenyl)-2-(1H-imidazol-2-yl)-5-methyl-4H,5H-thieno[3,2-c]pyridine-4-one] | < 8.00 | – | –
5 | COc1cc(-c2cn(C)c(=O)c3cc(NC(=O)C4CCN(C)CC4)sc23)cc(OC)c1CN(C)C [Compound B3, N-(7-[4-[(dimethylamino)methyl]-3,5-dimethoxyphenyl]-5-methyl-4-oxo-4H,5H-thieno[3,2-c]pyridin-2-yl)-1-methylpiperidine-4-carboxamide] | < 8.00 | – | –
6 | COc1cc(-c2cn(C)c(=O)c3cc(C(=N)NC4CCS(=O)(=O)CC4)sc23)ccc1OCC(=O)O [Compound B8, 2-(4-[2-[N-(1,1-dioxo-1λ6-thian-4-yl)carbamimidoyl]-5-methyl-4-oxo-4H,5H-thieno[3,2-c]pyridin-7-yl]-2-methoxyphenoxy)acetic Acid Trifluoroacetic Acid] | < 8.00 | – | –
7 | COc1cc(-c2cn(C)c(=O)c3cc(-c4nc5ccncc5[nH]4)sc23)cc(OC)c1CN(C)C [Compound B2, 7-[4-[(dimethylamino)methyl]-3,5-dimethoxyphenyl]-2-[3H-imidazo[4,5-c]pyridin-2-yl]-5-methylthieno[3,2-c]pyridin-4-one] | > 8.00 | – | –
8 | Cn1cc(-c2cccc(C(F)(F)F)c2)c2sc(C(=N)NC3CCS(=O)(=O)NC3)cc2c1=O (stereo not shown) [Compound B1, N-(1,1-dioxo-1λ6,2-thiazinan-4-yl)-5-methyl-4-oxo-7-[3-(trifluoromethyl)phenyl]thieno[3,2-c]pyridine-2-carboximidamide] | < 8.00 | – | –
9 | COc1cc(-c2cn(C)c(=O)c3cc(C(=O)NC4CCC(=O)NC4)sc23)cc(OC)c1CN(C)C (stereo not shown) [Compound B5, 7-[4-[(dimethylamino)methyl]-3,5-dimethoxyphenyl]-5-methyl-4-oxo-N-(6-oxopiperidin-3-yl)-4H,5H-thieno[3,2-c]pyridine-2-carboxamide] | > 8.00 | – | –
10 | COc1cc(-c2cn(C)c(=O)c3cc(NC(=O)C4CN(C)CCO4)sc23)cc(OC)c1CN(C)C (stereo not shown) [Compound B4, N-(7-[4-[(Dimethylamino)methyl]-3,5-dimethoxyphenyl]-5-methyl-4-oxo-4H,5H-thieno[3,2-c]pyridin-2-yl)-4-methylmorpholine-2-carboxamide Formic Acid] | < 8.00 | – | –
11 | COc1cc(-c2cn(C)c(=O)c3cc(C(=O)NC4CC5(CCN(C(=O)CCN6CCN(c7ccc8c(c7)C(=O)N(C7CCC(=O)NC7=O)C8=O)CC6)C5)C4)sc23)cc(OC)c1CN(C)C (stereo not shown) [Compound D72] | – | – | DC50 [2, 3]: < 10 nM
12 | COc1cc(-c2cn(C)c(=O)c3cc(C(=O)NC4CCC5(CCN(CCN6CCN(c7ccc8c(c7)C(=O)N(C7CCC(=O)NC7=O)C8=O)CC6)C5)C4)sc23)cc(OC)c1CN(C)C (stereo not shown) [Compound D39] | – | – | DC50 [2, 3]: < 10 nM
13 | COc1cc(-c2cn(C)c(=O)c3cc(C(=O)NCC4CC5(C4)CN(CCCN4CCN(c6ccc7c(c6)C(=O)N(C6CCC(=O)NC6=O)C7=O)CC4)C5)sc23)cc(OC)c1CN(C)C (stereo not shown) [Compound D52] | – | – | DC50 [2, 3]: > 10 nM
14 | COc1cc(-c2cn(C)c(=O)c3cc(C(=O)NC4CC5CC4CN5C(=O)CCN4CCN(c5ccc6c(c5)C(=O)N(C5CCC(=O)NC5=O)C6=O)CC4)sc23)cc(OC)c1CN(C)C (stereo not shown) [Compound D68] | – | – | DC50 [2, 3]: > 10 nM
15 | COc1cc(-c2cn(C)c(=O)c3cc(C(=O)NC4CCC5CN(CCN6CCN(c7ccc8c(c7)C(=O)N(C7CCC(=O)NC7=O)C8=O)CC6)CC54)sc23)cc(OC)c1CN(C)C (stereo not shown) [Compound D38] | – | – | DC50 [2, 3]: < 10 nM

More lines, main results first:

Row | pIC50 [1] | DC50 [2, 4] [nM] | SMILES | also measured
16 | < 8.00 | – | COc1cc(-c2cn(C)c(=O)c3cc(C(=O)NC4CCN(C)CC4)sc23)cc(OC)c1CN(C)CC(=O)NCCOCCOc1cccc2c1C(=O)N(C1CCC(=O)NC1=O)C2=O (stereo not shown) [Compound D14, 7-(4-[[([[2-(2-[[2-(2,6-dioxopiperidin-3-yl)-1,3-dioxoisoindol-4 yl]oxy]ethoxy)ethyl]carbamoyl]methyl)(methyl)amino]methyl]-3,5-dimethoxyphenyl)-5-methyl-N-(1-methylpiperidin-4-yl)-4-oxothieno[3,2-c]pyridine-2-carboxamide] | DC50 ([2]; 6 hours treatment): > 100 nM
17 | > 8.00 | – | COc1cc(-c2cn(C)c(=O)c3cc(C(=N)NC4CCS(=O)(=O)CC4)sc23)ccc1OCC(=O)NCCCCCCCCNc1cccc2c1CN(C1CCC(=O)NC1=O)C2=O (stereo not shown) [Compound D2, 2-(4-[2-[N-(1,1-dioxo-A6-thian-4-yl)carbamimidoyl]-5-methyl-4-oxo-4H,5H-thieno[3,2-c]pyridin-7-yl]-2-methoxyphenoxy)-N-(8-[[2-(2,6-dioxopiperidin-3-yl)-1-oxo-2,3-dihydro-1H-isoindol-4-yl]amino]octyl)acetamide] | DC50 ([2]; 6 hours treatment): > 10 nM
18 | – | < 10 | COc1cc(-c2cn(C)c(=O)c3cc(C(=O)NC4CCN(c5ccc6c(c5)CN(C5CCC(=O)NC5=O)C6=O)CC4(F)F)sc23)cc(OC)c1CN(C)C (stereo not shown) [Compound D164] | –
19 | – | < 10 | COc1cc(-c2c(C)n(C)c(=O)c3ccsc23)cc(OC)c1CN1CCC2(CC1)CN(c1ccc3c(c1)C(=O)N(C1CCC(=O)NC1=O)C3)C2 (stereo not shown) [Compound D158] | –
20 | – | < 10 | COc1cc(-c2cn(C)c(=O)c3ocnc23)cc(OC)c1CN1CCC2(CC1)CN(c1ccc3c(c1)C(=O)N(C1CCC(=O)NC1=O)C3)C2 (stereo not shown) [Compound D217] | –
21 | – | < 10 | Cn1cc(-c2cccc(C(F)(F)F)c2)c2sc(C(=O)NC3CCN(c4ccc5c(c4)C(=O)N(C4CCC(=O)NC4=O)C5)CC3)cc2c1=O (stereo not shown) [Compound D128] | –
22 | – | < 10 | COc1cc(-c2cn(C)c(=O)c3cc(C(=O)N[C@@H]4CCN(CCN5CCN(c6ccc7c(c6)C(=O)N(C6CCC(=O)NC6=O)C7)CC5)CC4(F)F)sc23)cc(OC)c1CN(C)C (stereo partly shown) [Compound D166] | –
23 | – | < 10 | COc1cc(-c2cn(C)c(=O)c3cc(C(=O)N[C@@H]4CCN(C5CCN(c6ccc7c(c6)C(=O)N([C@@H]6CCC(=O)NC6=O)C7)CC5)CC4(F)F)sc23)cc(OC)c1CN(C)C [Compound D135] | –
24 | – | < 10 | COc1cc(-c2cn(C)c(=O)c3ccsc23)cc(OC)c1CN1CCC2(CC1)CN(c1ccc3c(c1)CN(C1CCC(=O)NC1=O)C3=O)C2 (stereo not shown) [Compound D178] | –
25 | – | < 10 | COc1cc(-c2cn(C)c(=O)c3c(C)csc23)cc(OC)c1CN1CCC(CN2CCC3(CC2)CN(c2ccc4c(c2)C(=O)N(C2CCC(=O)NC2=O)C4=O)C3)CC1 (stereo not shown) [Compound D161] | –
26 | – | < 10 | COc1cc(-c2cn(C)c(=O)c3ccsc23)cc(OC)c1CN1CC(C#Cc2ccc3c(c2)C(=O)N(C2CCC(=O)NC2=O)C3)C1 (stereo not shown) [Compound D92] | –
